Series [1] is described as follows: The drug is tested on Z-017 corresponding to mouse gut metagenome with ENA study accession number: PRJEB37062 and ENA sample accession number: ERS12561816 for biotransformation under anaerobic condition. The drug concentrations were measured over 9 timepoints collected between 0 and 24 hours of incubation by liquid-chromatography-coupled mass spectrometry (LC–MS). Particulars: 2 µM.

The conditions of series [2]: human gut metagenome, 24 h, 2 µM.
The conditions of series [3]: human gut metagenome, 24 h, 2 µM. This is another data set of the same source.
The conditions of series [4]: human gut metagenome, 24 h, 2 µM. The source holds these as a separate data set.
Series [5] can be described thus: The drug is tested on Z-002 corresponding to rabbit gut metagenome with ENA study accession number: PRJEB37062 and ENA sample accession number: ERS12561802 for biotransformation under anaerobic condition. The drug concentrations were measured over 9 timepoints collected between 0 and 24 hours of incubation by liquid-chromatography-coupled mass spectrometry (LC–MS). The conditions noted are these: 2 µM.

The nature of series [6]: The drug is tested on Z-003 corresponding to pig gut metagenome with ENA study accession number: PRJEB37062 and ENA sample accession number: ERS12561803 for biotransformation under anaerobic condition. The drug concentrations were measured over 9 timepoints collected between 0 and 24 hours of incubation by liquid-chromatography-coupled mass spectrometry (LC–MS). The conditions noted are these: 2 µM.

Series [7] can be described thus: The drug is tested on Z-007 corresponding to rat gut metagenome with ENA study accession number: PRJEB37062 and ENA sample accession number: ERS12561807 for biotransformation under anaerobic condition. The drug concentrations were measured over 9 timepoints collected between 0 and 24 hours of incubation by liquid-chromatography-coupled mass spectrometry (LC–MS). Particulars: 2 µM.

For series [8] the following is noted: human gut metagenome, 24 h, 2 µM. This is another data set of the same source.
The nature of series [9]: The drug is tested on WLS-098 corresponding to human gut metagenome with ENA study accession number: PRJEB37062 and ENA sample accession number: ERS12561754 for biotransformation under anaerobic condition. The drug concentrations were measured over 9 timepoints collected between 0 and 24 hours of incubation by liquid-chromatography-coupled mass spectrometry (LC–MS). Particulars: 2 µM.

The conditions of series [10]: human gut metagenome, 24 h, 2 µM. This is another data set of the same source.
Series [11] is described as follows: The drug is tested on WLS-073 corresponding to human gut metagenome with ENA study accession number: PRJEB37062 and ENA sample accession number: ERS12561749 for biotransformation under anaerobic condition. The drug concentrations were measured over 9 timepoints collected between 0 and 24 hours of incubation by liquid-chromatography-coupled mass spectrometry (LC–MS). Particulars: 2 µM.

Series [12] in a line: The drug is tested on Z-019 corresponding to rat gut metagenome with ENA study accession number: PRJEB37062 and ENA sample accession number: ERS12561818 for biotransformation under anaerobic condition. The drug concentrations were measured over 9 timepoints collected between 0 and 24 hours of incubation by liquid-chromatography-coupled mass spectrometry (LC–MS). The conditions noted are these: 2 µM.

For series [13] the following is noted: human gut metagenome, 24 h, 2 µM. This is another data set of the same source.
For series [14] the following is noted: human gut metagenome, 24 h, 2 µM. This is another data set of the same source.
For series [15] the following is noted: human gut metagenome, 24 h, 2 µM. This is another data set of the same source.
Series [16] can be described thus: The drug is tested on WLS-240 corresponding to human gut metagenome with ENA study accession number: PRJEB37062 and ENA sample accession number: ERS12561773 for biotransformation under anaerobic condition. The drug concentrations were measured over 9 timepoints collected between 0 and 24 hours of incubation by liquid-chromatography-coupled mass spectrometry (LC–MS). The conditions noted are these: 2 µM.

The nature of series [17]: The drug is tested on WLS-069 corresponding to human gut metagenome with ENA study accession number: PRJEB37062 and ENA sample accession number: ERS12561748 for biotransformation under anaerobic condition. The drug concentrations were measured over 9 timepoints collected between 0 and 24 hours of incubation by liquid-chromatography-coupled mass spectrometry (LC–MS). Particulars: 2 µM.

For series [18] the following is noted: human gut metagenome, 24 h, 2 µM. The source holds these as a separate data set.
The conditions of series [19]: human gut metagenome, 24 h, 2 µM. This is another data set of the same source.
For series [20] the following is noted: human gut metagenome, 24 h, 2 µM. This is another data set of the same source.
Note: call rule not given here.

Turning to `CC(=O)OCC(CCn1cnc2cnc(N)nc21)COC(C)=O` [FAMCICLOVIR], the “Bacterial Biotransformation” value in series [1], in series [2], in series [3], in [4], in series [5] and in series [6] was “Compound metabolized” each time. In addition, the “Bacterial Biotransformation” value in series [7] is “Compound metabolized”; in [8] it was “Compound metabolized”; in [9], “Compound metabolized”; in [10], “Compound metabolized”; in series [11] it was “Compound metabolized”; in [12] it was “Compound NOT metabolized”. The “Bacterial Biotransformation” value in series [13], in series [14], in series [15], in [16], in series [17] and in series [18] was “Compound metabolized” each time. In addition, the “Bacterial Biotransformation” value in series [19] and in [20] was “Compound metabolized” each time.
For `O=C(O)CCC(=O)O.O=C(O[C@H]1CN2CCC1CC2)N1CCc2ccccc2[C@@H]1c1ccccc1` [SOLIFENACIN SUCCINATE], the “Bacterial Biotransformation” value in [1] is “Compound NOT metabolized”; in series [2], “Compound metabolized”; in series [3], “Compound NOT metabolized”; in [4], “Compound metabolized”; in series [5], “Compound metabolized”; in [6], “Compound metabolized”. The “Bacterial Biotransformation” value in [7] is “Compound NOT metabolized”; in [8], “Compound metabolized”; in series [9] it was “Compound metabolized”; in series [10], “Compound NOT metabolized”; in [11], “Compound metabolized”; in series [12], “Compound NOT metabolized”. Also, the “Bacterial Biotransformation” value in series [13] was “Compound NOT metabolized”; in series [14] it was “Compound metabolized”; in [15], “Compound NOT metabolized”; in [16], “Compound metabolized”; in series [17], “Compound metabolized”; in [18], “Compound metabolized”. Also, the “Bacterial Biotransformation” value in series [19] is listed as “Compound metabolized”; in series [20] it was “Compound NOT metabolized”.
Consider `CN(C)C(=O)Oc1cc(OC(=O)N(C)C)cc(C(O)CNC(C)(C)C)c1` (stereo not given) [BAMBUTEROL], for which the “Bacterial Biotransformation” value in series [1] was “Compound NOT metabolized”; in [2] it was “Compound metabolized”; in series [3] it was “Compound metabolized”; in [4], “Compound metabolized”; in series [5], “Compound metabolized”; in series [6] it was “Compound NOT metabolized”. Moreover, the “Bacterial Biotransformation” value is recorded as “Compound NOT metabolized” in series [7]; “Compound metabolized” in series [8]; “Compound metabolized” in series [9]; “Compound metabolized” in series [10]; “Compound NOT metabolized” in series [11]; “Compound NOT metabolized” in [12]. Further, the “Bacterial Biotransformation” value in [13] is “Compound NOT metabolized”; in series [14], “Compound metabolized”; in series [15], “Compound NOT metabolized”; in series [16], “Compound metabolized”; in [17], “Compound NOT metabolized”; in series [18], “Compound metabolized”. In addition, the “Bacterial Biotransformation” value is “Compound metabolized” in [19] and “Compound NOT metabolized” in [20].
